The text below walks through data of paper PMC4767466, “Identification of a novel platelet antagonist that binds to CLEC-2 and suppresses podoplanin-induced platelet aggregation and cancer metastasis” (Oncotarget, 2015).

The target in assay [1] is T1, CLEC-2 (C-type lectin-like receptor 2) (Homo sapiens, UniProt Q9P126).
T1 construct: gene CLEC1B; recombinant CLEC-2
The experiment in a line: SPR (Biacore T200, CLEC-2 amine-coupled to CM5 chip, equilibrium fit). The format is binding.

The target of a further assay is CLEC-2 (Homo sapiens) (UniProt Q9P126). As to conditions: cited from earlier work.
Chain of CLEC-2 (Homo sapiens) (Q9P126 whole entry): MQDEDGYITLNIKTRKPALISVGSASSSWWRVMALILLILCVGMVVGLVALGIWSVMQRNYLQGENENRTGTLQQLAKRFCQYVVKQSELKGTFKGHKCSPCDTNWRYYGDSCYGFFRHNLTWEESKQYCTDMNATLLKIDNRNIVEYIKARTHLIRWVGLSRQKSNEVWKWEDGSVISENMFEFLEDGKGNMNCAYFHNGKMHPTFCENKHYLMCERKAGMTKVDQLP

T1 sequence (Q9P126 whole entry): as above

`O=C(NCCNC(=O)c1cc([N+](=O)[O-])ccc1O)c1ccccc1` [2CP]: binding in assay [1] was put at a Kd of 33.2 ± 1.9 µM. Consider podoplanin (from UniProt Q86YL7), for which the Kd – broadly, the concentration at which binding is half-saturated – with CLEC-2 (Homo sapiens) was 24.5 µM.
